# In patent publication US8759104B2, “Cationic lipids” (The University Court of the University of Edinburgh, priority 2010, dated 2014):
# Tested on: HeLa cells
# Assay: Transfection of pEGFP-C1 reporter plasmid into HeLa cells, GFP expression by flow cytometry
# Format: cell-based, human
# Settings: HeLa cells 48 h after transfection with reporter plasmid, flow cytometry
# Experimental: The corresponding cationic lipid (1 mM in methanol) were mixed in different proportions with DOPE (10 mg/mL in chloroform) and the organic solvent removed by evaporation in an oven (37° C.) overnight. The resultant thin films were then hydrated with PBS. The solutions were vortexed (10-20 s) and incubated at ambient temperature for 20 min. Plasmid DNA or siRNA solution (0.04 mg/mL in PBS or another isotonic solution) was subsequently added and the solution vortexed (10-20 s). The lipoplexes were incubated at room temperature for 20 min before being used.
# Human HeLa cells were grown in RPMI supplemented with 4 mM glutamine, 10% FCS and 100 units/ml penicillin/streptomycin (RPMI-CM) until 80% confluence. HEK293 and B16F10 cells were grown in DMEM supplemented with 4 mM glutamine, 10% FCS and 100 units/ml penicillin/streptomycin (DMEM-CM) until 80% confluence. Cells were then suspended using trypsin/EDTA and counted. 2×10^4 cells in 150 μL of media per well were seeded in 96 well plates and incubated overnight. The day afterwards, the different lipoplex formulations were added. Each experiment was performed in quadruplicate, using Effectene® Transfection Reagent (Qiagen), Lipofectamine™ 2000 (Invitrogen) and Fugene (Roche) as positive controls and untreated cells as negative controls. After two days incubation at 37° C. and 5% CO2 (the change of media after transfection was not necessary), the green fluorescent protein (GFP) expression, as a consequence of transfecting the pEGFP-C1, was evidenced using a fluorescent microscope (Leica) and measured by flow cytometry. For the flow cytometry analysis, cells were washed twice with PBS, detached with trypsin/EDTA, harvested with 2% ferum bovine serum (FBS) in PBS, centrifuged and resuspended with 2% FBS in PBS and analyzed using a BD FACSaria flow cytometer. Transfection efficiency was measured as percentage of transfected cells.
# Reagents that obtained greater than 50% transfection were also analyzed against HEK293 and B16F10 cell lines. Transfection results (+ percentages of transfection between 5-25%; ++ percentages of transfection between 25-50%; N.D. not determined). MTT toxicity assay results are indicated between brackets with 100% being cell viability of untreated cells.
row,SMILES,"Transfection results (percentage of transfected cells), HeLa"
1,CCCCCCCCCCCCCCCCCCCC(=O)NCCCN(CCCNC(=O)CCCCCCCCCCCCCCCCCCC)C(=O)/C=C\C(=O)N[C@@H](CCCNC(=N)N)C(=O)N[C@@H](CCCNC(=N)N)C(N)=O.O=C(O)C(F)(F)F.O=C(O)C(F)(F)F [Compound A2-Sp4-A],+ (percentages of transfection between 5-25%)
2,CCCCCCCC/C=C\CCCCCCCC(=O)NCCCN(CCCNC(=O)CCCCCCC/C=C\CCCCCCCC)C(=O)/C=C\C(=O)N[C@@H](CCCNC(=N)N)C(N)=O.O=C(O)C(F)(F)F [Compound A1-Sp4-O],+ (percentages of transfection between 5-25%)
3,CCCCCCCC/C=C\CCCCCCCC(=O)NCCN(CCNC(=O)CCCCCCC/C=C\CCCCCCCC)C(=O)CCC(=O)N[C@@H](CCCNC(=N)N)C(=O)N[C@@H](CCCNC(=N)N)C(N)=O.O=C(O)C(F)(F)F.O=C(O)C(F)(F)F [Compound A2-Sp1-O],++ (percentages of transfection between 25-50%)
4,CCCCCCCCCCCCCCCCCCCCCCCC(=O)NCCCN(CCCNC(=O)CCCCCCCCCCCCCCCCCCCCCCC)C(=O)CCC(=O)N[C@@H](CCCNC(=N)N)C(=O)N[C@@H](CCCNC(=N)N)C(=O)N[C@@H](CCCNC(=N)N)C(N)=O.O=C(O)C(F)(F)F.O=C(O)C(F)(F)F.O=C(O)C(F)(F)F [Compound A3-Sp3-L],+ (percentages of transfection between 5-25%)
5,CCCCCCCCCCCCCCCCCC(=O)NCCCN(CCCNC(=O)CCCCCCCCCCCCCCCCC)C(=O)/C=C\C(=O)N[C@@H](CCCNC(=N)N)C(=O)N[C@@H](CCCNC(=N)N)C(N)=O.O=C(O)C(F)(F)F.O=C(O)C(F)(F)F [Compound A2-Sp4-S],+ (percentages of transfection between 5-25%)
6,CCCCCCCCCCCCCCCCCCCC(=O)NCCCN(CCCNC(=O)CCCCCCCCCCCCCCCCCCC)C(=O)/C=C\C(=O)N[C@@H](CCCNC(=N)N)C(=O)N[C@@H](CCCNC(=N)N)C(=O)N[C@@H](CCCNC(=N)N)C(N)=O.O=C(O)C(F)(F)F.O=C(O)C(F)(F)F.O=C(O)C(F)(F)F [Compound A3-Sp4-A],+ (percentages of transfection between 5-25%)
7,CCCCCCCCCCCCCCCCCCCC(=O)NCCCN(CCCNC(=O)CCCCCCCCCCCCCCCCCCC)C(=O)/C=C\C(=O)N[C@@H](CCCNC(=N)N)C(N)=O.O=C(O)C(F)(F)F [Compound A1-Sp4-A],+ (percentages of transfection between 5-25%)
8,CCCCCCCCCCCCCCCCCCCCCCCC(=O)NCCN(CCNC(=O)CCCCCCCCCCCCCCCCCCCCCCC)C(=O)/C=C\C(=O)N[C@@H](CCCNC(=N)N)C(N)=O.O=C(O)C(F)(F)F [Compound A1-Sp2-L],+ (percentages of transfection between 5-25%)
9,CCCCCCCC/C=C\CCCCCCCC(=O)NCCCN(CCCNC(=O)CCCCCCC/C=C\CCCCCCCC)C(=O)CCC(=O)N[C@@H](CCCNC(=N)N)C(=O)N[C@@H](CCCNC(=N)N)C(N)=O.O=C(O)C(F)(F)F.O=C(O)C(F)(F)F [Compound A2-Sp3-O],++ (percentages of transfection between 25-50%)
10,CCCCCCCCCCCCCCCCCCCC(=O)NCCN(CCNC(=O)CCCCCCCCCCCCCCCCCCC)C(=O)/C=C\C(=O)N[C@@H](CCCNC(=N)N)C(=O)N[C@@H](CCCNC(=N)N)C(=O)N[C@@H](CCCNC(=N)N)C(N)=O.O=C(O)C(F)(F)F.O=C(O)C(F)(F)F.O=C(O)C(F)(F)F [Compound A3-Sp2-A],+ (percentages of transfection between 5-25%)
11,CCCCCCCCCCCCCCCCCCCCCCCC(=O)NCCN(CCNC(=O)CCCCCCCCCCCCCCCCCCCCCCC)C(=O)CCC(=O)N[C@@H](CCCNC(=N)N)C(N)=O.O=C(O)C(F)(F)F [Compound A1-Sp1-L],+ (percentages of transfection between 5-25%)
12,CCCCCCCCCCCCCCCCCC(=O)NCCN(CCNC(=O)CCCCCCCCCCCCCCCCC)C(=O)CCC(=O)N[C@@H](CCCNC(=N)N)C(=O)N[C@@H](CCCNC(=N)N)C(N)=O.O=C(O)C(F)(F)F.O=C(O)C(F)(F)F [Compound A2-Sp1-S],+ (percentages of transfection between 5-25%)
13,CCCCCCCCCCCCCCCC(=O)NCCCN(CCCNC(=O)CCCCCCCCCCCCCCC)C(=O)CCC(=O)N[C@@H](CCCNC(=N)N)C(=O)N[C@@H](CCCNC(=N)N)C(N)=O.O=C(O)C(F)(F)F.O=C(O)C(F)(F)F [Compound A2-Sp3-P],+ (percentages of transfection between 5-25%)
14,CCCCCCCCCCCCCCCCCC(=O)NCCN(CCNC(=O)CCCCCCCCCCCCCCCCC)C(=O)CCC(=O)N[C@@H](CCCNC(=N)N)C(=O)N[C@@H](CCCNC(=N)N)C(=O)N[C@@H](CCCNC(=N)N)C(N)=O.O=C(O)C(F)(F)F.O=C(O)C(F)(F)F.O=C(O)C(F)(F)F [Compound A3-Sp1-S],++ (percentages of transfection between 25-50%)
15,CCCCCCCCCCCCCCCCCCCCCCCC(=O)NCCN(CCNC(=O)CCCCCCCCCCCCCCCCCCCCCCC)C(=O)/C=C\C(=O)N[C@@H](CCCNC(=N)N)C(=O)N[C@@H](CCCNC(=N)N)C(N)=O.O=C(O)C(F)(F)F.O=C(O)C(F)(F)F [Compound A2-Sp2-L],+ (percentages of transfection between 5-25%)
16,CCCCCCCCCCCCCCCCCCCCCCCC(=O)NCCN(CCNC(=O)CCCCCCCCCCCCCCCCCCCCCCC)C(=O)CCC(=O)N[C@@H](CCCNC(=N)N)C(=O)N[C@@H](CCCNC(=N)N)C(=O)N[C@@H](CCCNC(=N)N)C(N)=O.O=C(O)C(F)(F)F.O=C(O)C(F)(F)F.O=C(O)C(F)(F)F [Compound A3-Sp1-L],+ (percentages of transfection between 5-25%)
17,CCCCCCCCCCCCCCCCCCCC(=O)NCCN(CCNC(=O)CCCCCCCCCCCCCCCCCCC)C(=O)CCC(=O)N[C@@H](CCCNC(=N)N)C(=O)N[C@@H](CCCNC(=N)N)C(N)=O.O=C(O)C(F)(F)F.O=C(O)C(F)(F)F [Compound A2-Sp1-A],+ (percentages of transfection between 5-25%)
18,CCCCCCCC/C=C\CCCCCCCC(=O)NCCN(CCNC(=O)CCCCCCC/C=C\CCCCCCCC)C(=O)/C=C\C(=O)N[C@@H](CCCNC(=N)N)C(N)=O.O=C(O)C(F)(F)F [Compound A1-Sp2-O],+ (percentages of transfection between 5-25%)
19,CCCCCCCCCCCCCCCCCC(=O)NCCN(CCNC(=O)CCCCCCCCCCCCCCCCC)C(=O)CCC(=O)N[C@@H](CCCNC(=N)N)C(N)=O.O=C(O)C(F)(F)F [Compound A1-Sp1-S],+ (percentages of transfection between 5-25%)
20,CCCCCCCCCCCCCCCCCCCCCCCC(=O)NCCCN(CCCNC(=O)CCCCCCCCCCCCCCCCCCCCCCC)C(=O)/C=C\C(=O)N[C@@H](CCCNC(=N)N)C(N)=O.O=C(O)C(F)(F)F [Compound A1-Sp4-L],+ (percentages of transfection between 5-25%)
21,CCCCCCCC/C=C\CCCCCCCC(=O)NCCCN(CCCNC(=O)CCCCCCC/C=C\CCCCCCCC)C(=O)/C=C\C(=O)N[C@@H](CCCNC(=N)N)C(=O)N[C@@H](CCCNC(=N)N)C(=O)N[C@@H](CCCNC(=N)N)C(N)=O.O=C(O)C(F)(F)F.O=C(O)C(F)(F)F.O=C(O)C(F)(F)F [Compound A3-Sp4-O],+ (percentages of transfection between 5-25%)
22,CCCCCCCCCCCCCCCCCCCCCCCC(=O)NCCN(CCNC(=O)CCCCCCCCCCCCCCCCCCCCCCC)C(=O)/C=C\C(=O)N[C@@H](CCCNC(=N)N)C(=O)N[C@@H](CCCNC(=N)N)C(=O)N[C@@H](CCCNC(=N)N)C(N)=O.O=C(O)C(F)(F)F.O=C(O)C(F)(F)F.O=C(O)C(F)(F)F [Compound A3-Sp2-L],+ (percentages of transfection between 5-25%)
23,CCCCCCCC/C=C\CCCCCCCC(=O)NCCCN(CCCNC(=O)CCCCCCC/C=C\CCCCCCCC)C(=O)CCC(=O)N[C@@H](CCCNC(=N)N)C(N)=O.O=C(O)C(F)(F)F [Compound A1-Sp3-O],++ (percentages of transfection between 25-50%)
24,CCCCCCCCCCCCCCCCCC(=O)NCCCN(CCCNC(=O)CCCCCCCCCCCCCCCCC)C(=O)CCC(=O)N[C@@H](CCCNC(=N)N)C(=O)N[C@@H](CCCNC(=N)N)C(=O)N[C@@H](CCCNC(=N)N)C(N)=O.O=C(O)C(F)(F)F.O=C(O)C(F)(F)F.O=C(O)C(F)(F)F [Compound A3-Sp3-S],+ (percentages of transfection between 5-25%)
25,CCCCCCCCCCCCCCCC(=O)NCCN(CCNC(=O)CCCCCCCCCCCCCCC)C(=O)CCC(=O)N[C@@H](CCCNC(=N)N)C(N)=O.O=C(O)C(F)(F)F [Compound A1-Sp1-P],+ (percentages of transfection between 5-25%)
